According to US20170258711A1, “Fatty Acid Acylated D-Amino Acids for Oral Peptide Delivery” (Novo Nordisk A/S, priority 2012, published 2017):

Tested on: Caco-2 cells
Experiment: Transepithelial electrical resistance (TEER) of Caco-2 cell monolayers
Format: cell-based
Set-up: unit not given here
Conditions: for TEER 24 h: 24 h after experiment
Experimental: Caco-2 cells were obtained from the American Type Culture Collection (Manassas, Va.). Cells were seeded in culturing flasks and passaged in Dulbecco's Modified Eagle′ medium supplemented with 10% fetal bovine serum, 1% penicillin/streptomycin (100 U/ml and 100 μg/ml, respectively), 1% L-glutamine and 1% nonessential amino acids. Caco-2 cells were seeded onto tissue culture treated polycarbonate filters in 12-well Transwell plates (1.13 cm2, 0.4 μm pore size) at a density of 10^5 cells/well. Monolayers were grown in an atmosphere of 5% CO2-95% O2 at 37° C. Growth media were replaced every other day. The experiment was performed on day 10-14 after seeding of Caco-2 cells.
Before and during the experiment the transepithelial electrical resistance (TEER) of the cell monolayers was monitored. In selected experiments, the transport buffer were changed to culturing medium after end of experiment and the TEER measured 24 h after experiment. The TEER was measured with EVOM™ Epithelial Voltohmmeter connected to Chopsticks.

[1] = Table 12, comparison D- with L-counterparts, footnote: insulin analogue A1(Nα,Nα-Dimethyl), A14E, B1(Nα,Nα-dimethyl), B25H, B29K(N(eps)Octadecanedioyl-gGlu-OEG-OEG), desB30 human insulin
[2] = Table 12, comparison D- with L-counterparts
[3] = Table 9, insulin analogue A14E, B25H, B29K(N(eps)Octadecanedioyl-gGlu-OEG-OEG), desB30 human insulin + 0.5 mM fatty acid acylated amino acid
[4] = Table 10, L-amino acid counterparts, insulin analogue A14E, B25H, B29K(N(eps)Octadecanedioyl-gGlu-OEG-OEG), desB30 human insulin
[5] = Table 10, L-amino acid counterparts
[6] = Table 11, insulin analogue A1(Nα,Nα-Dimethyl), A14E, B1(Nα,Nα-dimethyl), B25H, B29K(N(eps)Octadecanedioyl-gGlu-OEG-OEG), desB30 human insulin

## CCCCCCCCCCCC(=O)N[C@@H](C(=O)O)[C@H](C)CC [N-dodecanoyl-D-isoleucine]
[1]
  TEER 60 min: 48.3
[2]
  TEER 24 h: 101.4

## CCCCCCCCCCCC(=O)N[C@H](Cc1ccccc1)C(=O)O [N-dodecanoyl-D-phenylalanine]
[3]
  TEER 60 min: 37.6
Table 9, in culturing medium
  TEER 24 h: 108.4
[1]
  TEER 60 min: 37.6
[2]
  TEER 24 h: 108.4

## CCCCCCCCCCCCCCCC(=O)N[C@@H](CC(=O)O)C(=O)O [N-hexadecanoyl-L-aspartic acid, reference compound]
[4]
  TEER 60 min: 33.2
[5]
  TEER 24 h: 112.3
[6]
  TEER 60 min: 76.0
  TEER 24 h: 97.2
[1]
  TEER 60 min: 33.2
[2]
  TEER 24 h: 112.3

## CCCCCCCCCCCCCC(=O)N[C@H](CC(=O)O)C(=O)O [N-tetradecanoyl-D-aspartic acid]
[3]
  TEER 60 min: 74.2
Table 9, in culturing medium
  TEER 24 h: 96.1
[1]
  TEER 60 min: 74.2
[2]
  TEER 24 h: 96.1

## CCCCCCCCCC(=O)N[C@H](C(=O)O)[C@@H](C)CC [N-decanoyl-L-isoleucine, reference compound]
[1]
  TEER 60 min: 58.3
[2]
  TEER 24 h: 102.4

## CCCCCCCCCC(=O)N[C@@H](CC(C)C)C(=O)O [N-decanoyl-L-leucine, reference compound]
[5]
  TEER 24 h: 101.8
Table 10, L-amino acid counterparts, listed as N-decanoyl-L-Leucine
  TEER 24 h: 102.4
[1]
  TEER 60 min: 92.2
[2]
  TEER 24 h: 101.8

## CCCCCCCCCCCC(=O)N[C@H](C(=O)O)C(C)C [N-dodecanoyl-L-valine, reference compound]
[4]
  TEER 60 min: 79.7
[5]
  TEER 24 h: 95.3
[1]
  TEER 60 min: 79.7
[2]
  TEER 24 h: 95.3

## CCCCCCCCCCCCCC(=O)N[C@@H](Cc1c[nH]c2ccccc12)C(=O)O [N-tetradecanoyl-L-tryptophan, reference compound]
[4]
  TEER 60 min: 27.8
[5]
  TEER 24 h: 107.9
[1]
  TEER 60 min: 27.8
[2]
  TEER 24 h: 107.9

## CCCCCCCCCCCCCC(=O)N[C@@H](Cc1ccc(O)cc1)C(=O)O [N-tetradecanoyl-L-tyrosine, reference compound]
[4]
  TEER 60 min: 41.9
[5]
  TEER 24 h: 122.3
[1]
  TEER 60 min: 41.9
[2]
  TEER 24 h: 122.3

## CCCCCCCCCCCC(=O)N[C@H](CC(C)C)C(=O)O [N-dodecanoyl-D-leucine]
Table 9, in culturing medium
  TEER 24 h: 100.0
Table 9, in culturing medium, listed as N-dodecanoyl-D-Leucine
  TEER 24 h: 101.4
[6]
  TEER 60 min: 50.9
  TEER 24 h: 91.4
[1]
  TEER 60 min: 42.8
[2]
  TEER 24 h: 100

## CCCCCCCCCCCCCC(=O)N[C@H](Cc1ccc(O)cc1)C(=O)O [N-tetradecanoyl-D-tyrosine]
[3]
  TEER 60 min: 44.4
Table 9, in culturing medium
  TEER 24 h: 125.3
[1]
  TEER 60 min: 44.4
[2]
  TEER 24 h: 125.3

## CCCCCCCCCCCCCC(=O)N[C@H](Cc1c[nH]c2ccccc12)C(=O)O [N-tetradecanoyl-D-tryptophan]
[3]
  TEER 60 min: 31.3
Table 9, in culturing medium
  TEER 24 h: 109.9
[1]
  TEER 60 min: 31.3
[2]
  TEER 24 h: 109.9

## CCCCCCCCCCCCCCCC(=O)N[C@H](CC(=O)O)C(=O)O [N-hexadecanoyl-D-aspartic acid]
[3]
  TEER 60 min: 24.1
Table 9, in culturing medium
  TEER 24 h: 112.2
[6]
  TEER 60 min: 74.7
  TEER 24 h: 87.0
[1]
  TEER 60 min: 24.1
[2]
  TEER 24 h: 112.2

## CCCCCCCCCCCCCC(=O)N[C@@H](CC(=O)O)C(=O)O [N-tetradecanoyl-L-aspartic acid, reference compound]
[4]
  TEER 60 min: 77.1
[5]
  TEER 24 h: 100.2
[1]
  TEER 60 min: 77.1
[2]
  TEER 24 h: 100.2

## CCCCCCCCCC(=O)N[C@H](CC(C)C)C(=O)O [N-decanoyl-D-leucine]
[3]
  TEER 60 min: 93.8
Table 9, in culturing medium
  TEER 24 h: 100.3
[1]
  TEER 60 min: 93.8
[2]
  TEER 24 h: 100.3

## CCCCCCCCCCCCCCCC(=O)N[C@H](CCC(=O)O)C(=O)O [N-hexadecanoyl-D-glutamic acid]
[3]
  TEER 60 min: 35.6
Table 9, in culturing medium
  TEER 24 h: 106.2
[1]
  TEER 60 min: 35.6
[2]
  TEER 24 h: 106.2

## CCCCCCCCCCCC(=O)N[C@@H](Cc1ccccc1)C(=O)O [N-dodecanoyl-L-phenylalanine, reference compound]
[4]
  TEER 60 min: 36.6
[5]
  TEER 24 h: 100.4
[1]
  TEER 60 min: 36.6
[2]
  TEER 24 h: 100.4

## CCCCCCCCCCCCCCCC(=O)N[C@@H](CCC(=O)O)C(=O)O [N-hexadecanoyl-L-glutamic acid, reference compound]
[4]
  TEER 60 min: 72.3
[5]
  TEER 24 h: 109.5
[1]
  TEER 60 min: 72.3
[2]
  TEER 24 h: 109.5

## CCCCCCCCCCCCCC(=O)N[C@H](CCC(=O)O)C(=O)O [N-tetradecanoyl-D-glutamic acid]
[3]
  TEER 60 min: 79.9 ± 2.9^¤
Table 9, in culturing medium
  TEER 24 h: 102.2 ± 1.9^¤
[1]
  TEER 60 min: 79.9 ± 2.9^¤
[2]
  TEER 24 h: 102.2 ± 1.9^¤

## CCCCCCCCCCCC(=O)N[C@@H](C(=O)O)C(C)C [N-dodecanoyl-D-valine]
[3]
  TEER 60 min: 66.1
Table 9, in culturing medium
  TEER 24 h: 99.3
[1]
  TEER 60 min: 66.1
[2]
  TEER 24 h: 99.3

## CCCCCCCCCCCCCC(=O)N[C@@H](CCC(=O)O)C(=O)O [N-tetradecanoyl-L-glutamic acid, reference compound]
[4]
  TEER 60 min: 82.0 ± 3.2^¤
[5]
  TEER 24 h: 103.1 ± 3.7^¤
[1]
  TEER 60 min: 82.0 ± 3.2^¤
[2]
  TEER 24 h: 103.1 ± 3.7^¤

## CCCCCCCCCCCC(=O)N[C@@H](CC(C)C)C(=O)O [N-dodecanoyl-L-leucine, reference compound]
[4]
  TEER 60 min: 47.8
[5]
  TEER 24 h: 107.9
[6]
  TEER 60 min: 57.4
  TEER 24 h: 91.7
[1]
  TEER 60 min: 47.8
[2]
  TEER 24 h: 107.9

## CCCCCCCCCCCC(=O)N1CCC[C@@H]1C(=O)O [N-dodecanoyl-D-proline]
[3]
  TEER 60 min: 76.6
Table 9, in culturing medium
  TEER 24 h: 99.1
[1]
  TEER 60 min: 76.6
[2]
  TEER 24 h: 99.1
